“Also recorded” adds a separate entry of the source.
Legend:
E. faecalis = assay: Kill or inhibit growth/proliferation; morphology, biofilm and growth disruption (Tables 5, 6); assay type: cell-based, Enterococcus faecalis; design: key: A: Peptide aggregates; B: Less hyphal formation; Clumps; Diffuse clumps and small polyps; F: Diffuse growth; H: Thin; I: Growth inhibition; Microcolony formation; Rippled; Small polyps; Thick; W: Halo formation on top, microlonies on bottom; note: test concentration or dose not given here
[1] = tested on: microorganisms (e.g., bacteria, yeasts, fungi); assay: Targeting peptide binding to target microorganisms (Table 3); details: preferably 1x PBS; for Target(s) (microorganisms bound by the targeting peptide): peptide binding in aqueous buffers varied by peptide solubility; for Target(s): microorganism(s) the targeting peptide binds
microorganisms = assay: Peptides having multiple activities (targeting/binding, antimicrobial, growth or phenotype altering)
Text: In certain embodiments, peptides described herein can have multiple activities. Thus for example, a peptide can have both binding/targeting activity and antimicrobial activity. Such peptides can be used, e.g., in a chimeric construct, for any or all of these properties. Thus, for example, a peptide designated “B” in Table 8 can be used as a targeting peptide. If it is also designated G or M it can also be used for antimicrobial activity.

MRSA = assay: Kill or inhibit growth/proliferation; morphology, biofilm and growth disruption (Tables 5, 6); assay type: cell-based, Methicillin-resistant Staphylococcus aureus; design: key: A: Peptide aggregates; B: Less hyphal formation; Clumps; Diffuse clumps and small polyps; F: Diffuse growth; H: Thin; I: Growth inhibition; Microcolony formation; Rippled; Small polyps; Thick; W: Halo formation on top, microlonies on bottom; note: test concentration or dose not given here
S. epidermidis = assay: as above; assay type: cell-based, Staphylococcus epidermidis; design: key: A: Peptide aggregates; B: Less hyphal formation; Clumps; Diffuse clumps and small polyps; F: Diffuse growth; H: Thin; I: Growth inhibition; Microcolony formation; Rippled; Small polyps; Thick; W: Halo formation on top, microlonies on bottom
S. pneumoniae = assay: as above; assay type: cell-based, Streptococcus pneumoniae; design: key: A: Peptide aggregates; B: Less hyphal formation; Clumps; Diffuse clumps and small polyps; F: Diffuse growth; H: Thin; I: Growth inhibition; Microcolony formation; Rippled; Small polyps; Thick; W: Halo formation on top, microlonies on bottom; note: test concentration or dose not given here
[2] = binding in aqueous buffers depending on peptide solubility
[3] = peptide binding conducted in aqueous buffers varied by peptide solubility
Throughout, for Organism, effect (morphology, biofilm and growth disruption): test concentration or dose not given here.
Throughout, for Organism, effect: test concentration or dose not given here.

Substance	Organism, effect (E. faecalis)	Target(s) (microorganisms bound by the targeting peptide) [1]	Activities (microorganisms)	Organism, effect (MRSA)	Target(s) [1, 3]	further results
DEIKVSDEEIEKFIKENNL [PF-597]	E. faecalis (A)	P. mirabilis	G B			
PF-373: peptide having multiple activities (chain 1 HFYLLFER; chain 2 HFYLLFER; Peptide with targeting and/or antimicrobial activity)			G B	MRSA (M)		Organism, effect (S. epidermidis): S. epidermidis (M); Target(s) [1, 2]: S. epidermidis and E. coli and P. aeruginosa and C. albicans and MRSA and E. faecalis and C. jejuni
PF-378: peptide having multiple activities (chain 1 ESAKSNLNFLMQEEWALFLLL; chain 2 ESAKSNLNFLMQEEWALFLLL; Peptide with targeting and/or antimicrobial activity)			G B	MRSA (M)		Organism, effect (S. epidermidis): S. epidermidis (M); Target(s) [1, 2]: B. subtilis; also recorded: B. fragilis; also recorded: E. coli; also recorded: P. aeruginosa; also recorded: C. jeikeium
PF-394: peptide having multiple activities (chain 1 VLKEECYQKN; chain 2 VLKEECYQKN; Peptide with targeting and/or antimicrobial activity)	E. faecalis (A)		G B	MRSA (C)	S. epidermidis and MRSA and C. jejuni	
PF-404: peptide having multiple activities (VLYFQATVV; Peptide with targeting and/or antimicrobial activity)			G B	MRSA (M)	S. epidermidis; also recorded: E. coli; also recorded: P. aeruginosa; also recorded: E. faecalis; also recorded: C. jeikeium; also recorded: C. jejuni	Organism, effect (S. epidermidis): S. epidermidis (M)
PF-406: peptide having multiple activities (YLEMNADYLSNMDIFDELWEKYLENNK; Peptide with targeting and/or antimicrobial activity)			G B	MRSA (M)	E. coli; also recorded: C. jejuni	Organism, effect (S. epidermidis): S. epidermidis (C)
PF-408: peptide having multiple activities (YCVPLGNMGNMNNKIW; Peptide with targeting and/or antimicrobial activity)			G B	MRSA (M)	S. epidermidis and E. coli and P. aeruginosa and MRSA and E. faecalis and C. jeikeium and C. jejuni	Organism, effect (S. epidermidis): S. epidermidis (M)
PF-417: peptide having multiple activities (DSYFRS; Peptide with targeting and/or antimicrobial activity)			G B	MRSA (M)	S. epidermidis; also recorded: C. jeikeium; also recorded: C. jejuni	Organism, effect (S. epidermidis): S. epidermidis (M); Organism, effect (S. pneumoniae): S. pneumoniae (M)
PF-430: peptide having multiple activities (AVVCGYLAYTATS; Peptide with targeting and/or antimicrobial activity)			G B	MRSA (M)	S. epidermidis; also recorded: M. luteus; also recorded: E. coli; also recorded: S. pneumoniae; also recorded: E. faecalis; also recorded: C. jeikeium; also recorded: C. jejuni	Organism, effect (S. epidermidis): S. epidermidis (M); Organism, effect (S. pneumoniae): S. pneumoniae (M)
PF-484: peptide having multiple activities (chain 1 HKKDIRKQVFKN; chain 2 HKKDIRKQVFKN; Peptide with targeting and/or antimicrobial activity)	E. faecalis (A)		G B		S. epidermidis; also recorded: M. luteus; also recorded: P. mirabilis; also recorded: E. coli; also recorded: E. faecalis; also recorded: C. jeikeium; also recorded: C. jejuni	
PF-582 (NLKTIEKECPFCNNKMDIKLKD; Peptide with targeting and/or antimicrobial activity)	E. faecalis (A)					
PF-588: peptide having multiple activities (ESVEAIKAKAIK; Peptide with targeting and/or antimicrobial activity)	E. faecalis (A)		G B		S. epidermidis; also recorded: E. coli; also recorded: C. albicans; also recorded: E. faecalis; also recorded: C. jeikeium; also recorded: C. jejuni	
PF-593: peptide having multiple activities (MEISTLKKEKLHVKDELSQYLANYKK; Peptide with targeting and/or antimicrobial activity)	E. faecalis (A)		G B		C. jeikeium	
PF-594: peptide having multiple activities (IVSAIV; Peptide with targeting and/or antimicrobial activity)	E. faecalis (C)		G B		C. jeikeium	
PF-602: peptide having multiple activities (LEKEKKEYIEKLFKTK; Peptide with targeting and/or antimicrobial activity)	E. faecalis (A)	P. mirabilis; also recorded: C. jeikeium	G B			
PF-604: peptide having multiple activities (LMEQVEV; Peptide with targeting and/or antimicrobial activity)	E. faecalis (A)	S. epidermidis; also recorded: C. albicans; also recorded: C. jeikeium	G B			
PF-618 (KLNTLNKKDNPSLNDQDKNAVLNLLALAK; Peptide with targeting and/or antimicrobial activity)	E. faecalis (H)					Organism, effect (S. pneumoniae): S. pneumoniae (I)
PF-621: peptide having multiple activities (PPSSFLV; Peptide with targeting and/or antimicrobial activity)	E. faecalis (H)	S. epidermidis; also recorded: C. albicans	G B			Organism, effect (S. pneumoniae): S. pneumoniae (I)
PF-631: peptide having multiple activities (chain 1 LIIYFSKTGNTARATRQI; chain 2 LIIYFSKTGNTARATRQI; Peptide with targeting and/or antimicrobial activity)	E. faecalis (H)	S. epidermidis and P. aeruginosa and C. albicans and MRSA and S. pneumoniae and E. faecalis and C. jeikeium	G B			Organism, effect (S. pneumoniae): S. pneumoniae (I)
PF-643 (chain 1 VRCRL; chain 2 VRCRL; Peptide with targeting and/or antimicrobial activity)	E. faecalis (R)	Mycobacteria spp		MRSA (C)		Organism, effect (S. pneumoniae): S. pneumoniae (R)
PF-649 (chain 1 CPRYPFVDVGPAGPWRARWRVGS; chain 2 CPRYPFVDVGPAGPWRARWRVGS; Peptide with targeting and/or antimicrobial activity)		Mycobacteria spp				Organism, effect (morphology, biofilm and growth disruption) (E. faecalis): E. faecalis (R)
PF-675 (chain 1 EIIPISPTRRCEMHTMSSAEYRGL; chain 2 EIIPISPTRRCEMHTMSSAEYRGL; Peptide with targeting and/or antimicrobial activity)		Mycobacteria spp				Organism, effect (morphology, biofilm and growth disruption) (E. faecalis): E. faecalis (R); Organism, effect (morphology, biofilm and growth disruption) (S. pneumoniae): S. pneumoniae (C)
PF-683 (chain 1 LWPVA; chain 2 LWPVA; Peptide with targeting and/or antimicrobial activity)		Mycobacteria spp				Organism, effect (morphology, biofilm and growth disruption) (MRSA): MRSA (R); Organism, effect (morphology, biofilm and growth disruption) (S. epidermidis): S. epidermidis (R); Organism, effect (morphology, biofilm and growth disruption) (S. pneumoniae): S. pneumoniae (H)
PF-760: peptide having multiple activities (DHITLDDYEIHDGFNFELYYG; Peptide with targeting and/or antimicrobial activity)		S. epidermidis; also recorded: M. luteus	G B			Organism, effect (morphology, biofilm and growth disruption) (MRSA): MRSA (M); Organism, effect (morphology, biofilm and growth disruption) (S. epidermidis): S. epidermidis (M); Organism, effect (morphology, biofilm and growth disruption) (S. pneumoniae): S. pneumoniae (C)

Source: patent US20110039762A1, “TARGETED ANTIMICROBIAL MOIETIES” (C3 JIAN, INC., priority 2009, published 2011)
